# Experimental data taken from article PMC4594923, “Food Polyphenols Fail to Cause a Biologically Relevant Reduction of COX-2 Activity” (PLoS ONE, 2015).
# Marks after values point to notes of the source that are not given here.
# Legend:
# ovine recombinant COX–1 = target: T1, ovine recombinant COX–1 (Ovis aries, UniProt P05979); assay: cell-free COX–1 enzyme assay (PGE2 formation, LC-MS); assay type: biochemical; design: purchased Cayman Chemicals/ Biomol, Hamburg, Germany
# T1 sequence (P05979 25-600): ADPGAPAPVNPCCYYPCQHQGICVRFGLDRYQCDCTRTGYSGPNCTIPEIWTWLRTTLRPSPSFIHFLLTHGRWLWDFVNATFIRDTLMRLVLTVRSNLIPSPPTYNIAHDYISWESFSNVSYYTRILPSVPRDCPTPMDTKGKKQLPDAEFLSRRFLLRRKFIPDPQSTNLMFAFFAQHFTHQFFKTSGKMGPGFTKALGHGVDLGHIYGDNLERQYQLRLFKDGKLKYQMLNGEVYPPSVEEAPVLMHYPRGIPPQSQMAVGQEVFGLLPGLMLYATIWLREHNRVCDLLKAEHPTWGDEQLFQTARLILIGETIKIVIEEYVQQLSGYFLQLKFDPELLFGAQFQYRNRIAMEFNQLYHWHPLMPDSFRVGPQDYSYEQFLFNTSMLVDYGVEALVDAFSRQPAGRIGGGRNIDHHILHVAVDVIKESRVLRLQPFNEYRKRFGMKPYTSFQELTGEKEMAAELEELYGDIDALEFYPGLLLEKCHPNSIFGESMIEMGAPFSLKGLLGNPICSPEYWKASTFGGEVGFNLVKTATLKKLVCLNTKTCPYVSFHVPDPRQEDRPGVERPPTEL
# COX–2 protein = conditions: cited from earlier work
# [1] = system: arachidonic acid (AA) cascade; assay: kidney tissue oxylipin/PG levels in LPS induced sepsis in mice; conditions: kidney tissue 24 h after LPS treatment, LPS +, mean;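 also: male C57BL/6N mice challenged with LPS, kidney taken 24 h later, oxylipins quantified by LC-MS after solid-phase extraction of tissue homogenate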
# Source text: Twelve week old male C57BL/6N mice (Charles River, Sulzfeld, Germany) were used for all experiments. C57BL/6 male mice (H2^b, 11–13 weeks of age) were obtained from Charles River (Sulzfeld, Germany). Animals were cared for in accordance with the institution’s guidelines for experimental animals and with the guidelines of the American Physiological Society. […] Mice were monitored closely and if they appeared compromised (i.e. inactivity, no intake of food or water) after compound or LPS injection the experiment was terminated.
# Oxylipin levels were analyzed in plasma and tissues by LC-MS following SPE extraction of 200 μl plasma or tissue homogenate (50 mg) on Chromabond C18 ec cartridges (Machery-Nagel, Düren, Germany) [19].
# GraphPad Prism 5.0 (GraphPad Software, San Diego, USA) was used for data analysis, the fitting of dose response curves and calculation of the IC50 values. Statistical differences were determined by Dunnetts test (LPS vs. other groups).
compound,measurement,setting,value
"O=c1cc(-c2ccc(O)cc2)oc2cc(O)cc(O)c12 [Apigenin, apigenin]","decreased PGE2 formation in comparison to the control, COX–1",ovine recombinant COX–1; 100 μM,31%
same,"inhibition, COX–1 enzyme assay",ovine recombinant COX–1; up to 100 μM,inhibition < 50%(up to 100 μM)
same,"COX–2 (protein) levels, RAW 264.7 cells",COX–2 protein,reduced COX–2 levels
same,"1a,1b-dihomo-PGF2α",[1],1.3 nM
same,"4,5-DiHDPE",[1],15 nM
same,4-HDHA,[1],19 nM
same,5(6)-EpETrE,[1],130^* nM
same,"5,6-DiHETrE",[1],1.6^* nM
same,5-HEPE,[1],1.0 nM
same,5-HETE,[1],12 nM
same,5-oxo-ETE,[1],28 nM
same,6-keto-PGF1α,[1],55 nM
same,"7,8-DiHDPE",[1],1.6 nM
same,7-HDHA,[1],3.5 nM
same,8(9)-EpETrE,[1],32^† nM
same,"8,9-DiHETrE",[1],1.6 nM
same,8-HDHA,[1],20^† nM
same,8-HETE,[1],3.4 nM
same,8-iPF2a,[1],1.8 nM
same,9(10)-EpODE,[1],13 nM
same,9(10)-EpOME,[1],150 nM
same,9(10)-Epoxystearic acid,[1],77^* nM
same,"9,10,13-TriHOME",[1],4.8 nM
same,"9,10-DiHODE",[1],1.1 nM
same,"9,10-DiHOME",[1],15^† nM
same,"9,10-Dihydroxystearic acid",[1],57 nM
same,"9,12,13-TriHOME",[1],27 nM
same,9-HETE,[1],3.5 nM
same,9-HODE,[1],150 nM
same,9-HOTrE,[1],3.2 nM
same,9-oxo-ODE,[1],46 nM
same,10(11)-EpDPE,[1],82^‡ nM
same,"10,11-DiHDPE",[1],1.9 nM
same,10-HDHA,[1],3.6 nM
same,11(12)-EpETE,[1],4.4 nM
same,11(12)-EpETrE,[1],80^† nM
same,"11,12-DiHETrE",[1],2.1 nM
same,11-HDHA,[1],5.7 nM
same,11-HETE,[1],16 nM
same,12(13)-EpODE,[1],6.0 nM
same,12(13)-EpOME,[1],110 nM
same,"12,13-DiHOME",[1],32^* nM
same,12-HEPE,[1],1.1 nM
same,12-HETE,[1],10 nM
same,13(14)-EpDPE,[1],65^† nM
same,"13,14-DiHDPE",[1],3.0 nM
same,"13,14-dihydro-15-keto-PGF2α",[1],2.7 nM
same,13-HDHA,[1],6.9 nM
same,13-HODE,[1],120 nM
same,13-HOTrE,[1],3.3 nM
same,13-oxo-ODE,[1],8.5 nM
same,14(15)-EpETE,[1],5.4^‡ nM
same,14(15)-EpETrE,[1],60^† nM
same,"14,15-DiHETE",[1],0.7 nM
same,"14,15-DiHETrE",[1],5.9 nM
same,14-HDHA,[1],8.6 nM
same,15(16)-EpODE,[1],65 nM
same,15(S)-HETrE,[1],4.6 nM
same,"15,16-DiHODE",[1],13 nM
same,15-HETE,[1],22 nM
same,15-oxo-ETE,[1],8.2 nM
same,16(17)-EpDPE,[1],61^‡ nM
same,"16,17-DiHDPE",[1],8.2 nM
same,16-HDHA,[1],6.3 nM
same,17(18)-EpETE,[1],6.2^‡ nM
same,"17,18-DiHETE",[1],2.7 nM
same,17-HDHA,[1],17 nM
same,18-HEPE,[1],1.5 nM
same,19(20)-EpDPE,[1],92^‡ nM
same,"19,20-DiHDPE",[1],59 nM
same,20-HDHA,[1],18 nM
same,20-HEPE,[1],5.2 nM
same,EKODE,[1],40 nM
same,PGD2,[1],13 nM
same,PGE1,[1],4.7 nM
same,PGE2,[1],110 nM
same,PGF1α,[1],2.8 nM
same,PGF2α,[1],33 nM
same,TXB2,[1],2.0 nM
same,"5,6-DiHETE",[1]; < = below LOQ,< 0.25 nM
same,5-iPF2α,[1]; < = below LOQ,< 1.0 nM
same,8(9)-EpETE,[1]; < = below LOQ,2.9^† nM
same,"12,13-DiHODE",[1]; < = below LOQ,< 2.0 nM
same,"13,14-dihydro-15-keto-PGE1",[1]; < = below LOQ,0.41 nM
same,20-HETE,[1]; < = below LOQ,< 2.7 nM
same,PGD1,[1]; < = below LOQ,< 0.50 nM
same,PGF2α,[1]; second listing of PGF2α (r9),33 nM
